Biological target: T1, MyD88^TIR (Homo sapiens, UniProt Q99836)
T1 construct: MyD88 (residues 148–296); 6xHis; made in house; host or cells: E. coli BL21 (DE3)
Assay: T‐Surf phage library (P8 and P3) selection against MyD88^TIR, four rounds, NGS read counts
Type: binding
Settings: for P3_MyD88 Rank (after) / P3_MyD88 Rank (before): P3 library; for P8_MyD88 Rank (after) / P8_MyD88 Rank (before): P8 library; for Population: 4th round of selection against MyD88 TIR, share of NGS reads
Outline: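 Read counts come from NGS of phage pools enriched over four selection rounds on the plate‐coated TIR domain (5 µg mL^−1). Each round: 1 h phage binding at room temperature after 0.2% BSA blocking, Tween washes, acid elution, amplification in E. coli TG1 with M13KO7 helper.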

[1] = selection against MyD88, rank after grouping
[2] = selection against MyD88, rank before grouping
[3] = 4R selection against MyD88, rank after grouping
[4] = 4R selection against MyD88, rank before grouping
[5] = P8_MyD88: rank by count after grouping
[6] = P8_MyD88: rank by count before grouping
[7] = P8_MyD88 pool: P8 T-Surf phage library
[8] = P8_MyD88: rank by NGS read count after grouping
[9] = P8_MyD88: rank by NGS read count before grouping
[10] = selection against MyD88, rank by count after grouping
[11] = selection against MyD88, rank by count before grouping
[12] = P3_MyD88: rank by count after grouping
[13] = P3_MyD88: rank by count before grouping
[14] = selection against MyD88 TIR, rank by count after grouping
[15] = selection against MyD88 TIR, rank by count before grouping

T1 sequence (Q99836 148-296): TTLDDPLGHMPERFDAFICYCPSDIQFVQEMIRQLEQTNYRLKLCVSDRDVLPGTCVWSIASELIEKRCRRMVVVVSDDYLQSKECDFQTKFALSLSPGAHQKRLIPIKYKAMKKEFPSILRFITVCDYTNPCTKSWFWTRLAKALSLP

HPWRNTLTAAANLNGR
P3_MyD88 Rank (after) [1]: 546 | P3_MyD88 Rank (before) [2]: 2804

LVYHWIDWVYFVGIED
P8_MyD88 Rank (after) [3]: 659 | P8_MyD88 Rank (before) [4]: 3211

EIARQLLSEYLNIAVY
Rank (after) [5]: 131 | Rank (before) [6]: 142 | Population [7]: 0.0116%

EWIREQLRPALKEHLP
Population (P3_MyD88 pool: P3 T-Surf phage library): 0.00437%

AWTDDPVGQLFFWESL
Rank (after) [5]: 168 | Rank (before) [6]: 189 | Population [7]: 0.00655%

YLRADDNDYYWVTHVLLRHL
Rank (after) [8]: 983 | Rank (before) [9]: 2070

DIADEDLPYLIRLLYSL
Rank (after) [8]: 955 | Rank (before) [9]: 3056

DPQDLDWFYERLLS
Rank (after) [5]: 471 | Rank (before) [6]: 2786

SENYATSPWAPELLR
P3_MyD88 Rank (after) [3]: 658 | P3_MyD88 Rank (before) [4]: 2990

QDLGWFYERLFSQM
P8_MyD88 Rank (after) [10]: 735 | P8_MyD88 Rank (before) [11]: 3564

LGYHWKEWEHFVGIED
Rank (after) [8]: 1028 | Rank (before) [9]: 3310

SSICEGLWRLLELSKK
Rank (after) [12]: 453 | Rank (before) [13]: 3276

WGQAVTEDLWGWLFNP
Rank (after) [5]: 176 | Rank (before) [6]: 201

DWEWDYRLPNLEGPAC
P8_MyD88 Rank (after) [10]: 745 | P8_MyD88 Rank (before) [11]: 2487

DPQDPDRNYERMVSRL
P8_MyD88 Rank (after) [3]: 661 | P8_MyD88 Rank (before) [4]: 2961

YASSTWALDELLQIFE
Rank (after) [5]: 124 | Rank (before) [6]: 131 | Population [7]: 0.0135%

SSFREGLWCLRELSKK
Rank (after) [12]: 394 | Rank (before) [13]: 3156

YTALTNSGFHTFRDHE
P3_MyD88 Rank (after) [14]: 227 | P3_MyD88 Rank (before) [15]: 1676

DPQDLDWFYERLLSLS
Rank (after) [5]: 422 | Rank (before) [6]: 2764

YYLDPSHLRKQRGEVD
Rank (after) [12]: 418 | Rank (before) [13]: 1439

PGYHWLEWEYFVGIED
Rank (after) [5]: 442 | Rank (before) [6]: 1195

PSEVRKQTGSLAKALRRNCC
P3_MyD88 Rank (after) [14]: 254 | P3_MyD88 Rank (before) [15]: 1130

DPQARDCFYERLVSLF
Rank (after) [5]: 476 | Rank (before) [6]: 2687

DPQDLDWFYEHLVSLL
Rank (after) [5]: 114 | Rank (before) [6]: 570

DPQDLDRSYERLVSLC
P8_MyD88 Rank (after) [3]: 670 | P8_MyD88 Rank (before) [4]: 2842

SRDYASSPWALDELVL
Rank (after) [12]: 146 | Rank (before) [13]: 3095

YTALTNSRLHNFRDND
P3_MyD88 Rank (after) [10]: 696 | P3_MyD88 Rank (before) [11]: 1707

PRDLEWLYERLVSLIL
P8_MyD88 Rank (after) [14]: 278 | P8_MyD88 Rank (before) [15]: 3410

AVAHEISNKMKIFATI
P3_MyD88 Rank (after) [14]: 270 | P3_MyD88 Rank (before) [15]: 1888

AWIWGWREALVYIGGI
P8_MyD88 Rank (after) [14]: 254 | P8_MyD88 Rank (before) [15]: 448

WALDELLTILYAKETM
P8_MyD88 Rank (after) [3]: 608 | P8_MyD88 Rank (before) [4]: 1468

LGYHWFDWVYFVGIED
P8_MyD88 Rank (after) [1]: 523 | P8_MyD88 Rank (before) [2]: 3329

DPQDLDLFYERLVSMF
P8_MyD88 Rank (after) [3]: 673 | P8_MyD88 Rank (before) [4]: 2739

LGYHWIDWAYSVGIED
P8_MyD88 Rank (after) [10]: 750 | P8_MyD88 Rank (before) [11]: 3251

NGHESEIIKEIVDTM
Rank (after) [12]: 436 | Rank (before) [13]: 3365

DPQDLEWFYERLFSLI
P8_MyD88 Rank (after) [14]: 209 | P8_MyD88 Rank (before) [15]: 1112

YSFLSHLAAAFELHGI
P8_MyD88 Rank (after) [14]: 285 | P8_MyD88 Rank (before) [15]: 543

NELVHVWSSKANIRVC
P3_MyD88 Rank (after) [10]: 718 | P3_MyD88 Rank (before) [11]: 3399

DWVWDYLLPNLEGHAT
Rank (after) [8]: 904 | Rank (before) [9]: 2439

FDASTWWLRELLQIA
Rank (after) [5]: 413 | Rank (before) [6]: 814

SWAVDELLKILQAWDE
Rank (after) [5]: 137 | Rank (before) [6]: 151 | Population [7]: 0.0108%

LKVESWRDALTAAANLSGW
P3_MyD88 Rank (after) [1]: 489 | P3_MyD88 Rank (before) [2]: 2475

LKCGEPYFWSKLRYSI
P3_MyD88 Rank (after) [1]: 578 | P3_MyD88 Rank (before) [2]: 2406

DWVWDYLLPNLEGPG
P8_MyD88 Rank (after) [14]: 260 | P8_MyD88 Rank (before) [15]: 1038

LGFNWMDWEYFVGIEG
P8_MyD88 Rank (after) [3]: 671 | P8_MyD88 Rank (before) [4]: 3216

RYIMPHPQELIQQKQP
P3_MyD88 Rank (after) [14]: 249 | P3_MyD88 Rank (before) [15]: 2561

SSFRERLWRPVALSKK
P3_MyD88 Rank (after) [1]: 493 | P3_MyD88 Rank (before) [2]: 3227

SQRADCSWEWQKMLYP
Rank (after) [8]: 953 | Rank (before) [9]: 1659

WALNELLKILYANETM
Population [7]: 0.0108%

YYDSRWALDELWLILEQR
P8_MyD88 Rank (after) [10]: 749 | P8_MyD88 Rank (before) [11]: 1673

— article PMC11714206, “Massively Parallel Screening of Toll/Interleukin‐1 Receptor (TIR)‐Derived Peptides Reveals Multiple Toll‐Like Receptors (TLRs)‐Targeting Immunomodulatory Peptides” (Advanced Science, 2024)
